# Data as given in PMC6940745 (International Journal of Molecular Sciences, 2019).
# Where a SMILES comes first, the peptide text is derived from it. [ ]: non-standard residue; d: D form. The star is where a group is joined. Bz = O=C(c1ccccc1)*; NPr2 = CCCN(CCC)*
# Experiments:
# TYRP-1 = TYRP-1 protein expression in human skin ex vivo (immunohistochemistry); format: cell-based; conditions: topical 30, 100 and 200 µM, six days; p < 0.05
# Procedure: (§1) Following declaration of Helsinki principles (DoH-Oct2013, World Medical Association, Ferney-Voltaire, France), human skin samples were obtained from elective plastic surgery after informed consent was obtained. For the two experiments shown in Figure 2, Figure 3 and Figure 4, we had one person with an individual topology angle (ITA°) of 18, and one person with an ITA° of 39 [69]. The skin samples were cut in pieces of 8 × 3 mm and cultured up to day 6. Skin samples were cultured in an air–liquid interface in a perforated ring of stainless steel in contact with culture medium (modified Williams’ E medium). The culture medium was renewed every three days (i.e., day 0–3). Compounds were added daily in DMSO at 4 µL volume. At day 6, the skin samples were fixed in formalin, embedded in paraplast, and cut at the microtome for histochemical staining and consequent image analysis. Six skin biopsies were used for each single treatment.
# (§2) Twelve skin sections from the ex vivo melanogenesis experiment above were immunoassayed with the selected antibodies (TYR, Thermo Scientific #MS-800-P0 (Thermo Scientific, Waltham, MA, USA); TYRP-1, Covance #SIG-38150 (Covance Inc., Princeton, NJ, USA), MITF, Abcam #ab80651 (Abcam plc, Cambridge, UK). The number of positive cells within the epidermis was counted and the value was normalized upon the length of the basal lamina, thus obtaining a score. […]
# [1] = target: T1, human recombinant MC1 receptor (Homo sapiens, UniProt Q01726); test: MC1R activation, cAMP HTRF assay in CHO-K1 cells; format: cell-based
# T1 construct: host or cells: CHO-K1
# T1 sequence (Q01726 whole entry): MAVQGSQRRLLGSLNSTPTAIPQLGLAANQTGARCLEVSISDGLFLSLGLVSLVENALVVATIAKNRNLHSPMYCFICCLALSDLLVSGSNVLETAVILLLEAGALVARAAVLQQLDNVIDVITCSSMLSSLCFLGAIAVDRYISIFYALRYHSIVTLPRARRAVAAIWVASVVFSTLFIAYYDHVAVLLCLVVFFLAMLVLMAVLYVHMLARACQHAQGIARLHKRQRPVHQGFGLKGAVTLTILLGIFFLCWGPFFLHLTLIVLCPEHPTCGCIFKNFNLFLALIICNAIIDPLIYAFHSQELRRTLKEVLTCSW
# Procedure: (§3) MCR-activation assays were performed by means of a cAMP HTRF (homogeneous time resolved fluorescence) assay for Gs-coupled receptors (cAMP Gs dynamic kit, Cisbio bioassays, 62AM4PEC). CHO-K1 cells expressing human recombinant MC1 receptor (EuroscreenFast, Gosselies, Belgium) (or MC2R, MC3R, MC4R, MC5R) were grown prior to the test in media without antibiotic. They were detached by gentle flushing with PBS-EDTA (5 mM EDTA), recovered by centrifugation, and resuspended in assay buffer (5 mM KCl, 1.25 mM MgSO4, 124 mM NaCl, 25 mM HEPES, 13.3 mM Glucose, 1.25 mM KH2PO4, 1.45 mM CaCl2, 0.5 g/L BSA, supplemented with 1 mM IBMX). Dose response curves were performed in parallel with the reference compounds. For agonist test (96-well), 12 µL of cells were mixed with 12 µL of the test compound diluted at increasing concentrations in assay buffer, and then incubated for 30 min at room temperature. After addition of the lysis buffer and 1 h incubation, fluorescence signal was measured, according to the manufacturer’s specifications, with the homogeneous time resolved fluorescence (HTRF) kit.
# MITF = MITF protein expression in human skin ex vivo (immunohistochemistry); format: cell-based; conditions: topical 30, 100 and 200 µM, six days; p < 0.05
# Procedure: as §1, §2
# MC3R = target: T2, MC3R (Homo sapiens, UniProt P41968); test: MC3R activation, cAMP HTRF assay in CHO-K1 cells; format: cell-based; conditions: eight concentrations, 0.01 to 100,000 nM
# T2 construct: host or cells: CHO-K1
# T2 sequence (P41968 whole entry): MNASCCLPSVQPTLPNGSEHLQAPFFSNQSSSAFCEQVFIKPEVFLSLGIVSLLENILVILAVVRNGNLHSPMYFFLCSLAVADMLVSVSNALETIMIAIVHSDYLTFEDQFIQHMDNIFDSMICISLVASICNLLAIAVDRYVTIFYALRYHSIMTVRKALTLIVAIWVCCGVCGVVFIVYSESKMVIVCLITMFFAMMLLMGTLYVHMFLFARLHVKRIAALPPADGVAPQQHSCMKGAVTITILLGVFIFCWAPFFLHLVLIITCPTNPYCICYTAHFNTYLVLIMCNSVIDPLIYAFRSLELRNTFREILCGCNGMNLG
# Procedure: as §3
# MC2R = target: T3, MC2R (Homo sapiens, UniProt Q01718); test: MC2R activation, cAMP HTRF assay in CHO-K1 cells; format: cell-based
# T3 construct: host or cells: CHO-K1
# T3 sequence (Q01718 whole entry): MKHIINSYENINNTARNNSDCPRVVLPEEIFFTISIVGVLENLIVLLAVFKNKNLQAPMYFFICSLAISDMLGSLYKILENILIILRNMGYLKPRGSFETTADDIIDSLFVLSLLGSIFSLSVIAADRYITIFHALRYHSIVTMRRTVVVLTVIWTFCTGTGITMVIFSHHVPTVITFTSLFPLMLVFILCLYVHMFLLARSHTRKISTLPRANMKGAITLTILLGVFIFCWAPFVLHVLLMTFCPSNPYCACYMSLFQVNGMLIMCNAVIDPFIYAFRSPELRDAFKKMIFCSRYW
# T3 sequence (Q8TCY5 whole entry partner): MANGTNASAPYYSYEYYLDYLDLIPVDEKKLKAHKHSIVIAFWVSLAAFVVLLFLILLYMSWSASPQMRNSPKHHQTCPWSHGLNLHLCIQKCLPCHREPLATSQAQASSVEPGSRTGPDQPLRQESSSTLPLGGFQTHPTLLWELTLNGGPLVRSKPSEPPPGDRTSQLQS
# Procedure: as §3
# OP1R = target: T4, OP1R (Homo sapiens, UniProt P41143); test: OP1R (delta opioid) activation, GTPγS scintillation proximity assay; format: biochemical; conditions: eight concentrations, 0.01 to 100,000 nM
# T4 construct: host or cells: CHO-K1 (membrane preparations)
# T4 sequence (P41143 whole entry): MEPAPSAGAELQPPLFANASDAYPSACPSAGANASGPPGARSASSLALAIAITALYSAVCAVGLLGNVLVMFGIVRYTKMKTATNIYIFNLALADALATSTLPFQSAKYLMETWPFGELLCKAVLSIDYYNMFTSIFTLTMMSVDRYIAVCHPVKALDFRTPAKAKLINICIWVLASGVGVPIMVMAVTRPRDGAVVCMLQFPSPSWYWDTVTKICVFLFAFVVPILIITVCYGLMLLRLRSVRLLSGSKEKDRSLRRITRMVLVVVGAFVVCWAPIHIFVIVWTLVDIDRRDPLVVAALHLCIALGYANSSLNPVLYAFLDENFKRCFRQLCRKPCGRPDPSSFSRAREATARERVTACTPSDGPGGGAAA
# Procedure: (§4) Melatonin (MT1R and MT2R) and opioid receptor (OP1R, OP2R, and OP3R, corresponding to human delta, kappa, and mu opioid receptors) activation assays were performed by means of GTPγS scintillation proximity assays. For agonist testing, membrane preparations from CHO-K1 cells expressing each receptor (EuroscreenFast, Gosselies, Belgium) were mixed with guanosine diphosphate (GDP) (v/v). In parallel, GTPγ[^35S] (PerkinElmer, NEG030X, 0.1 nM final assay concentration) was mixed with PVT-WGA beads (Perkin Elmer, RPNQ001, 0.5 mg/well final assay density) (v/v) just before starting the reaction. The following reagents were then successively added in the wells of an Optiplate (Perkin Elmer): A total of 50 µL of test or reference ligand diluted in assay buffer, 10 µL of assay buffer (20 mM HEPES pH 7.4; 100–200 mM NaCl, 10 µg/mL saponin, MgCl2 at optimized concentration for the specific receptor, 0%–0.1% BSA), 20 µL of the membranes: GDP mix, and 20 µL of the GTPγ[^35S]: Beads mix. The plates were covered with a top seal, mixed on an orbital shaker for 2 min, and then incubated for 1 h at room temperature. Then the plates were centrifuged for 10 min at 2000 rpm, incubated at room temperature for 1 h, and counted for 1 min/well with a PerkinElmer TopCount™ reader.
# MT1R = target: T5, MT1R (Homo sapiens, UniProt P48039); test: MT1R activation, GTPγS scintillation proximity assay on CHO-K1 membranes; format: biochemical; conditions: eight concentrations, 0.01 to 100,000 nM
# T5 construct: host or cells: CHO-K1 (membrane preparations)
# T5 sequence (P48039 whole entry): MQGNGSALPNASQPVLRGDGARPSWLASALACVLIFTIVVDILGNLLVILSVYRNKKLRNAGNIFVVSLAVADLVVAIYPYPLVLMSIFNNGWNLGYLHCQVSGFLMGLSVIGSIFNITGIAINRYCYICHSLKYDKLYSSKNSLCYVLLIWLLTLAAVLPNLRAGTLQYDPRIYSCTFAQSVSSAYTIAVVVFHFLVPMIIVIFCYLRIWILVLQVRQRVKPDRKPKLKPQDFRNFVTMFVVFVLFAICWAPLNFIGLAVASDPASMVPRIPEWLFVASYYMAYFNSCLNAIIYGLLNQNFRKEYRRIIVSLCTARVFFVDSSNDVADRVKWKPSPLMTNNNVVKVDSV
# Procedure: as §4
# MC5R = target: T6, MC5R (Homo sapiens, UniProt P33032); test: MC5R activation, cAMP HTRF assay in CHO-K1 cells; format: cell-based
# T6 construct: host or cells: CHO-K1
# T6 sequence (P33032 whole entry): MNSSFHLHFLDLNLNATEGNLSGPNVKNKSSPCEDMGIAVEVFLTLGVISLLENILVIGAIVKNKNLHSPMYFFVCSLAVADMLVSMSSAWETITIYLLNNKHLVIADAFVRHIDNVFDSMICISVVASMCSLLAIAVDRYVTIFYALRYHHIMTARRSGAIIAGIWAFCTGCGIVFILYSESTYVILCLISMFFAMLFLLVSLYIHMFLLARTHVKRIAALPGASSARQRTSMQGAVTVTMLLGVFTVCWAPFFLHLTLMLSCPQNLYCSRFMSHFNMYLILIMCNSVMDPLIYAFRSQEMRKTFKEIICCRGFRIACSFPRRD
# Procedure: as §3
# OP3R = target: T7, OP3R (Homo sapiens, UniProt P35372); test: OP3R (mu opioid) activation, GTPγS scintillation proximity assay; format: biochemical; conditions: eight concentrations, 0.01 to 100,000 nM
# T7 construct: host or cells: CHO-K1 (membrane preparations)
# T7 sequence (P35372 whole entry): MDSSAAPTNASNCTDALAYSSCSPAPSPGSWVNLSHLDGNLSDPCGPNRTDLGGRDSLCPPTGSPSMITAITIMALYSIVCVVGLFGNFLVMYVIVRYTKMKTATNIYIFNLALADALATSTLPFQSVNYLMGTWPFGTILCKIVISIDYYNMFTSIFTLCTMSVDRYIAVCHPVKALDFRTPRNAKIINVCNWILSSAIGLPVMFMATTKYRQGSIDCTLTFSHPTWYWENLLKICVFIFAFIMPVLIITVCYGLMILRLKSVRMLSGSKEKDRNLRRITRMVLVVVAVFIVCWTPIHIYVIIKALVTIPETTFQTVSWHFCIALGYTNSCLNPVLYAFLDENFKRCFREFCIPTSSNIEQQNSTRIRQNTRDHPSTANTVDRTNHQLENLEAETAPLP
# Procedure: as §4
# human MCH1R = human MCH1R (Homo sapiens, UniProt Q99705); test: MCH1R activation, Aequorin assay; format: cell-based; conditions: eight concentrations, 0.01 to 100,000 nM
# Sequence of human MCH1R (Q99705 whole entry): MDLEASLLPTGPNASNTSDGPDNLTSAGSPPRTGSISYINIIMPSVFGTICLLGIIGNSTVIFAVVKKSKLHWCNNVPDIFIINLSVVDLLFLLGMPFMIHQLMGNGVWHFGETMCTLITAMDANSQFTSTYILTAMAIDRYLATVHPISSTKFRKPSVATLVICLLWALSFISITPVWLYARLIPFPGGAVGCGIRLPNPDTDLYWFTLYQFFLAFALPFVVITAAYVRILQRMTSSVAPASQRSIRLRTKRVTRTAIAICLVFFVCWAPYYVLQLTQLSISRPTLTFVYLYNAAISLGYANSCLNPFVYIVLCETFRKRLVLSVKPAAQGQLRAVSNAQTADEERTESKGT
# Procedure: Melanin-concentrating hormone receptor (MCHR), endothelin-1 receptor (ETBR), and serotonin-receptor (5-HT2AR) assays were performed by means of Aequorin assays. Recombinant cells co-expressing human MCH1R, MCH2R, ETBR, or 5-HT2AR and mitochondrial apoaequorin (MCH1R, MCH2R and 5-HT2AR cells also co-express recombinant Gα16 protein) (EuroscreenFast, Gosselies, Belgium), grown 18 h prior to the test in media without antibiotics, were detached by gentle flushing with PBS-EDTA (5 mM EDTA), recovered by centrifugation, and resuspended in assay buffer (DMEM/HAM’s F12 with HEPES + 0.1% BSA protease free). Cells were incubated under agitation at room temperature for at least 4 h with Coelenterazine h (Promega, X300X, 0.5 µM final concentration). Dose response curves with the reference compounds were performed before testing the compounds. For agonist testing, 50 µL of cell suspension was injected on 50 µL of test compound or reference agonist diluted in assay buffer and plated in a 96-well plate. The resulting emission of light was recorded using the Hamamatsu Functional Drug Screening System 6000 (FDSS 6000). […] Agonist activity of test compound was expressed as a percentage of the activity of the reference agonist at its EC100 concentration.
# [2] = eight concentrations, 0.01 to 100,000 nM
structure (smiles),measurement,setting,value
CCCN(CCC)C(=O)[C@@H](Cc1c[nH]c2ccccc12)NC(=O)[C@H](CCCNC(=N)N)NC(=O)[C@@H](Cc1ccccc1)NC(=O)[C@H](Cc1c[nH]cn1)NC(=O)CNC(=O)c1ccccc1 [Peptide 4] (Bz-GH[dF]R[dW]-NPr2),Maximal induction of TYRP-1 protein expression vs vehicle,TYRP-1,72%
same,EC50,[1],0.00042 µM
same,Maximal induction of MITF protein expression vs vehicle,MITF,79%
same,EC50,MC3R,0.877 µM
same,EC50,MC2R; [2],> 100 µM
same,Activation of MC2R,MC2R; up to 100 µM,no significant activation
same,EC50,OP1R,> 100 µM
same,EC50,MT1R,> 100 µM
same,EC50,MC5R; [2],> 100 µM
same,Activation of MC5R,MC5R; up to 100 µM,no significant activation
same,EC50,OP3R,> 100 µM
same,EC50,human MCH1R,> 100 µM
